From PubChem BioAssay AID330 (DTP/NCI, 2004)
Inconclusive results and toxic doses are left out. How the source made its calls: active means survival T/C of 150% or more; inactive means T/C below 125% in these data.

Tested on: P388 leukemia ip, CD2F1 mice, survival T/C
Experiment: NCI In Vivo Anticancer Drug Screen. Data for tumor model P388 Leukemia (intraperitoneal) in CD2F1 (CDF1) mice
Settings: endpoint: median survival time, higher = longer survival
In short: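 Mice carrying the transplanted tumor received test compound or vehicle. Survival was recorded in each group, and the value is the treated-group measurement divided by that of the vehicle-treated control group.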

Measured: T/C

COC(=O)CCSC(=O)NC(C)C
inactive: dose: 50.0 mg/kg/injection, schedule: Q01DX005 (ip), vehicle: Klucel (hydroxypropylcellulose) (HPC) 99 % of control | dose: 100.0 mg/kg/injection, schedule: Q01DX005 (ip), vehicle: Klucel (hydroxypropylcellulose) (HPC) 102 % of control | dose: 200.0 mg/kg/injection, schedule: Q01DX005 (ip), vehicle: Klucel (hydroxypropylcellulose) (HPC) 100 % of control

Cc1c(Cl)cnc(N)c1Cl (tested in a mixture with another compound)
inactive: dose: 25.0 mg/kg/injection, schedule: Q01DX009 (ip), vehicle: saline with Tween-80 93 % of control | dose: 50.0 mg/kg/injection, schedule: Q01DX009 (ip), vehicle: saline with Tween-80 90 % of control | dose: 100.0 mg/kg/injection, schedule: Q01DX009 (ip), vehicle: saline with Tween-80 93 % of control | dose: 200.0 mg/kg/injection, schedule: Q01DX009 (ip), vehicle: saline with Tween-80 95 % of control
